Experimental data taken from patent US7074778B2, “Asthma associated factors as targets for treating atopic allergies including asthma and related disorders” (Genaera Corporation, priority 1999, dated 2006).
Values after ≈ are worked out from the molar mass of the structure shown. Like-named read-outs stand apart in the source and are kept apart here. Each block holds one molecule with its values, some of them ahead of it.

Experiments:
[1] = test system: mitogen or antigen stimulated murine or human lymphocytes; test: Lymphocyte aggregation assay (PHA-PMA mitogen stimulated); type: cell-based; details: Homo sapiens, Lymphocyte, 12 h, aggregates of greater than 100 cells, PHA-PMA stimulation; read-out: Aggregation Assay Minimum Effective Conc.
Method: (§1) Immunomodulatory 3-aminosteroids (FIGS. 3–7 and Table I) were identified in vitro based on their ability to inhibit homo- or hetero-typic aggregation and subsequent proliferation of mitogen or antigen stimulated murine or human lymphocytes. Human or mouse lymphocytes were isolated from peripheral blood by Ficoll-Hypaque as described (Stoeckert et al., (1990) Exp. Hematol. 18. 1164–1170). For mitogen stimulation, 1×10^5 cells per well were plated in varying amounts of 3-aminosteroid compounds and assayed for aggregation and proliferation after twelve hours of stimulation by PHA-PMA mitogens. […] For antigen stimulation, lymphocytes were isolated from BALBc mice which had been sensitized to Aspergillus fumigatus antigen for three weeks and plated at 1×10^5 cells per well with or without 100 units of Aspergillus fulmigatus antigen. Cells were grown for three days and then scored for cellular aggregates and proliferation as described above in the presence or absence of increasing amounts of Compound-B or analogue compounds. […] Similar results were obtained in assays using antigen mediated response to compounds (not shown). […] All of the active compounds shown in Table I as well as rational modifications of these compounds as depicted in FIGS. 8–10 are embodiments of the invention

[2] = test system: mitogen or antigen stimulated murine or human lymphocytes; test: PBMC proliferation assay (tritiated thymidine incorporation); type: cell-based; details: Homo sapiens, Lymphocyte
Method: as §1

IL-9 = IL-9 expression in mitogen-stimulated lymphocytes (RT-PCR); type: cell-based, human; details: FIG. 13
Method: Total cellular RNA was extracted after 24 hours from cultured PBMC, murine spleen cells and M07e cells using RNA PCR corekit (Perkin-Elmer, Foster City Calif.) according to manufacturer's instructions. One microgram of RNA from each source was denatured for five minutes at 65° C. and then reverse transcribed into cDNA using a 20 μl reaction mixture containing 50 units of MLV Reverse Transcriptase, one unit per μl RNAse inhibitor. […] oligo d(T)16 primer, 1 mM each dATP, dCTP, dGTP, dTTP, 50 mM KCl, 10 mM Tris-HCl, pH 7.0, 25 mM MgCl2. The reaction mixture was pipetted into thermocycler tubes, placed in a PCR thermal cycler and subjected to one cycle (fifteen minutes at 42° C., five minutes at 99° C. and five minutes at 4° C.). A mock reverse transcription reaction was used as a negative control. […]
Immunomodulatory 3-aminosteroids (FIGS. 3–7 and Table I) were identified in vitro based on their ability to inhibit homo- or hetero-typic aggregation and subsequent proliferation of mitogen or antigen stimulated murine or human lymphocytes. […] Cells were grown for three days and then scored for cellular aggregates and proliferation as described above in the presence or absence of increasing amounts of Compound-B or analogue compounds. […]

[3] = test system: mice sensitized to antigen; test: Airway hyperresponsiveness in mice sensitized to Aspergillus fumigatus antigen (APTI); type: in vivo, mouse
Method: (§2) DBA2, C57BL6 or B6D2F1 mice, five to six weeks of age, were obtained from the National Cancer Institute or Jackson Laboratories. Animals were housed in high-efficiency particulate filtered air laminar flow hoods in a virus and antigen free facility and allowed free access to pelleted rodent chow and water for three to seven days prior to experimental manipulation. The animal facilities were maintained at 22° C. and the light:dark cycle is automatically controlled (10:14 hour cycle).
(§3) Phenotyping and efficacy of pretreatment. Animals either received no pretreatment or were sensitized by nasal aspiration of Aspergillus fumigatus antigen to assess the effect on bronchial hyperresponsiveness, bronchoalveolar lavage and serum IgE. Mice were challenged with Aspergillus or saline intranasally (Monday, Wednesday and Friday for three weeks) and phenotyped twenty-four hours after the last dose. The effect of pretreatment by aminosteroids was used to assess the effect of down-regulating the IL-9 pathway in mice. To determine the bronchoconstrictor response, respiratory system pressure was measured at the trachea and recorded before and during exposure to the drug. Mice were anesthetized and instrumented as previously described. (Kleeberger et al., (1990) Am. J. Physiol. 258, L313–320; Levitt et al., (1995) Clin. Exp. Allergy 25, 61–63; Ewart et al., (1995) J. Appl. Physiol. 79, 560–566). Airway responsiveness was measured to one or more of the following: 5-hydroxytryptamine, acetylcholine, atracurium or a substance-P analogue. A simple and repeatable measure of the change in peak inspiratory pressure following bronchoconstrictor challenge was used which has been termed the Airway Pressure Time Index (APTI). The APTI was assessed by the change in peak respiratory pressure integrated from the time of injection until the peak pressure returns to baseline or plateau.
(§4) Active compounds identified in vitro were tested in vivo for their ability to suppress airway hyperresponsiveness, lung eosinophilia and serum Ig levels using assays described above. […]

eosinophils = test: Bronchoalveolar lavage cellular analysis (eosinophilia) in sensitized mice; type: in vivo, mouse; details: FIG. 16
Excerpt: as §3, with “plateau. […]” for “plateau.”

[4] = test system: total serum IgG1, IgG2a and IgE; test: Serum Ig ELISA in sensitized DBA2J mice; type: in vivo, mouse
Method: Samples were centrifuged to separate cells and serum was collected and used to measure total IgG1, IgG2a and IgE levels. Samples not measured immediately were frozen at −20° C.
Serum Igs were measured using an ELISA antibody-sandwich assay. Microtiter plates were coated, 50 μl per well, with rat anti-murine IgG1, IgG2a or IgE antibody (Southern Biotechnology and PharMingen) at a concentration of 2.5 μg/ml in coating buffer of sodium carbonate-sodium bicarbonate with sodium azide. Plates were covered with plastic wrap and incubated at 4° C. for sixteen hours. The plates were washed three times with a wash buffer of 0.05% Tween-20 in phosphate-buffered saline, incubating for five minutes for each wash. Blocking of nonspecific binding sites was accomplished by adding 200 μl per well 5% bovine serum albumin in phosphate-buffered saline, covering with plastic wrap and incubating for two hours at 37° C. After washing three times with wash buffer, duplicate 50 μll test samples were added to the wells. Test samples were assayed after being diluted 1:10, 1:50 and 1:100 with 5% bovine serum albumin in wash buffer. In addition to the test samples, a set of Ig standards (PharMingen) at various liner concentrations in 5% bovine serum albumin in wash buffer, were assayed to generate a standard curve. A blank of no sample or standard was used to zero the plate reader (background). After adding samples and standards, the plate was covered with plastic wrap and incubated for two hours at room temperature. After washing three times with wash buffer, 50 μl of secondary antibody rat anti-murine IgG1, IgG2a or IgE-horseradish peroxidase conjugate was added at a concentration of 250 ng/ml in 5% bovine serum albumin in wash buffer. […] After five to ten minutes the reaction was stopped with 50 μl of 12.5% sulfuric acid and absorbance was measured at 490 nm on a Dynatech® MR5000 plate reader. A standard curve was constructed from the standards with antigen concentration on the x axis (log scale) and absorbance on the y axis (linear scale). […]

D2 naive mice = test: Bronchial hyperresponsiveness in D2 naive mice (APTI); type: in vivo, mouse; details: FIG. 14
Method: as §2, §3, §4

[5] = rat, in vivo, 1 mg/kg/day
Method: To determine the mechanism by which 3-aminosteroid compounds function to suppress the asthmatic response to allergen, comparative physiologic assays were carried out utilizing the extensively studied Sprague-Dawley rat model (Scaccianoce et al., (1995) Neuroendocrinology 62, 32–38; Hatzinger et al., (1996) Neuroendocrinology 64, 349–356). Animals were administered 1 mg/kg/day of either the corticosteroid Dexamethasone or Compound-B and analyzed at ten hours for corticosterone and ACTH. […] Similar results were found for ACTH levels (>100 fold) supporting the finding that Compound-B is acting by a different mechanism from dexamethasone.

[6] = Solubility during work-up; type: physicochemical; details: 10% acetonitrile/water, acidified with TFA
Method: The reductive aminations were accomplished by similar procedures. The sterol (500 mg for, […] for compounds 7 and 8) was dissolved in 2-propanol (25 mL). Ethylenediamine (1 mL) was added to the flask. The 3-oxo sterol and ethylenediamine were allowed to stir at room temperature for approximately four hours. Sodium cyanoborohydride (250 mg for compound 6 and 100 mg for compounds 7 and 8) was dissolved in 2-propanol (2 mL) and acetic acid (1 mL). The sodium cyanoborohydride solution was added to the reaction flask after evolution of gas had almost ceased (approximately five minutes). In all cases the reaction was complete before the first TLC was taken (less than five minutes). The work-up was the same for all analogues, solution was made basic (pH 10–11) by the addition of carbonate buffer. The aqueous layer was repeatedly extracted with chloroform. The chloroform was removed in vacuo and the crude 3-aminosteroid was dissolved in 10% acetonitrile/water, acidified with TFA. The solubility of compound I was very poor. The solutions were passed through a […] Gelman vacu-cap filter. The 3-aminosteroid isomers were separated by reverse phase chromatography on C18 (Dynamax, 300, 8 μM, 21.6 mm ID, 25 cm/L) using a gradient of acetonitrile in water with 0.1% TFA throughout. […]

[7] = 28 day tolerance study in Sprague-Dawley rats (weight, spleen); type: in vivo, rat; details: drug administered for 28 days
[8] = FIG. 11 and FIG. 12, mitogen-stimulated lymphocytes, read-out: IC50 for suppression of lymphocyte aggregation and proliferation
[9] = DBA2J mice sensitized to antigen, FIG. 15

Compound: COC(=O)CC[C@@H](C)C1CCC2C3C[C@@H](O)[C@H]4C[C@@H](NCCN)CC[C@]4(C)C3CC[C@@]21C (stereo partly shown) [Compound-A]
minimal effective concentration [1]: 1 µg/mL
IC50 [2, 8]: 0.5 µg/mL (≈ 1.11 µM)
expression of IL-9 in mitogen-stimulated lymphocytes (IL-9): block the expression of IL-9
block of airway hyperresponsiveness ([3]; BALBc mice, 2.5 mg/kg administered twice per week, FIG. 19): able to block airway hyperresponsiveness
block of airway hyperresponsiveness [3, 9]: able to block airway hyperresponsiveness
efficacy compared with dexamethasone [3, 9]: more efficacious than the commonly used corticosteroid, dexamethasone
eosinophilia (eosinophils in bronchoalveolar lavage) (eosinophils): eosinophils were the particular cell type affected
serum IgG2a (TH1 associated immunoglobulin) [4]: not
total serum IgG1 ([4]; FIG. 17): suppressed
total serum IgE ([4]; FIG. 18): suppressed

Compound: COC(=O)CC[C@@H](C)C1CCC2C3C(CC[C@@]21C)[C@@]1(C)CC[C@H](NCCN)C[C@H]1C[C@H]3O (stereo partly shown) [Compound-B]
minimal effective concentration [1]: 10 µg/mL
IC50 [2, 8]: 2.5 µg/mL (≈ 5.57 µM)
expression of IL-9 in mitogen-stimulated lymphocytes (IL-9): block the expression of IL-9
effective dose compared with Compound-D (D2 naive mice): effective at a lower dose than Compound-D
suppression of bronchial hyperresponsiveness (D2 naive mice; ip): effective in suppressing bronchial hyperresponsiveness
effect on plasma corticosterone [5]: no significant effect

Compound: C[C@@H](CNC(=O)N1CCCC1)C1CCC2C3CC[C@@H]4C[C@@H](NCCN)CC[C@]4(C)C3CC[C@@]21C (stereo partly shown) [Compound-I]
IC50 ([2]; tritiated thymidine incorporation, read-out: PBMC Proliferation ASSAY IC50): 0.23 µg/mL (≈ 0.487 µM)
solubility [6]: very poor

suppression of ACTH levels [5]: > 100 fold
suppression of absolute levels of plasma corticosterone [5]: > 450 fold
Compound: C[C@@H]1C[C@H]2[C@@H]3CCC4=CC(=O)C=C[C@]4(C)[C@@]3(F)[C@@H](O)C[C@]2(C)[C@@]1(O)C(=O)CO [dexamethasone]
body weight [7]: weight loss
spleen (splenic atrophy) ([7]; FIG. 21): splenic atrophy
